Reference: publication PMC8838982 (Bioorganic chemistry, 2021)
Where “and” joins values, the source holds several entries; their conditions need not be identical. Equal values may be shown once.

Legend:
Assay type in all cases: cell-based, influenza virus A/PR/8/34
[1] = system: PA-mutant H41A influenza virus polymerase
[2] = system: PA-mutant L42T influenza virus polymerase
[3] = system: PA-mutant G81T influenza virus polymerase
[4] = system: PA-mutant R84L influenza virus polymerase
[5] = system: PA-mutant I120T influenza virus polymerase
[6] = system: PA-mutant V122T influenza virus polymerase
[7] = system: PA-mutant R124Q influenza virus polymerase
[8] = system: PA-mutant K137L influenza virus polymerase
[9] = system: PA-mutant T20A influenza virus polymerase
[10] = system: PA-I38T mutant influenza virus polymerase

Compound | Fold increase in EC50 compared to wild-type [1] [fold] | Fold increase in EC50 compared to wild-type [2] [fold] | Fold increase in EC50 compared to wild-type [3] [fold] | Fold increase in EC50 compared to wild-type [4] | Fold increase in EC50 compared to wild-type [5] [fold] | Fold increase in EC50 compared to wild-type [6] [fold] | Fold increase in EC50 compared to wild-type [7] [fold] | Fold increase in EC50 compared to wild-type [8] [fold] | Fold increase in EC50 compared to wild-type [9] [fold] | Fold increase in EC50 compared to wild-type [10] [fold]
O=C1c2c(ccc(O)c2O)CN1Cc1ccc(O)cc1 [Compound 17, 2-(4-hydroxybenzyl)-6,7-dihydroxy-isoindolin-1-one] | 4.9 | 2.5 | 6.1 | 4 fold and 3.8 fold | 6.1 | 4.2 | 5.0 | 4.5 | – | –
NC(=O)c1ncn([C@@H]2O[C@H](CO)[C@@H](O)[C@H]2O)n1 [Ribavirin, ribavirin] | 0.8 | 0.9 | 0.9 | 1.1 fold | 1.0 | 1.2 | 1.1 | 1.3 | 1.0 | –
baloxavir acid [BXA] | 0.2 | 1.1 | 0.2 | 0.2 fold | 0.7 | 0.7 | 0.5 | – | 0.3 | 65
